Data as given in ChEMBL document CHEMBL1123905.

target: Histamine H2 receptor (Cavia porcellus) (UniProt P47747); assay: Antagonism of histamine stimulated rate of beating of guinea pig right atrium mediated by Histamine H2 receptor; format: functional, tissue-based; conditions: Cardiac atrium
Sequence (P47747 whole entry): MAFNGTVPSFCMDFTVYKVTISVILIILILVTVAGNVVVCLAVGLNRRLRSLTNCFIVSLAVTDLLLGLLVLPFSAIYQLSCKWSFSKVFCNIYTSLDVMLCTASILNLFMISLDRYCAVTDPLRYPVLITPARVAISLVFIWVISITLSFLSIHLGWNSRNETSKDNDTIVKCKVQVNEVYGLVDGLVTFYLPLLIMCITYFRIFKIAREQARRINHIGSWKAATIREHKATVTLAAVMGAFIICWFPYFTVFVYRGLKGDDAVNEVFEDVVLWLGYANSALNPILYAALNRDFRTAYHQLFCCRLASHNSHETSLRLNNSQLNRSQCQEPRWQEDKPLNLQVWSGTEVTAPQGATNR

Row | Compound | -Log KB
1 | Cc1[nH]cnc1CSCCNc1ncccc1S(=O)(=O)O | 3.77
2 | Cc1[nH]cnc1CSCC/N=C(\N)c1ccc(O)cc1 | 4.2
3 | Cc1[nH]cnc1CSCCNc1ccc(C(=O)O)cn1 | < 3.3
4 | Cc1[nH]cnc1CSCC/N=C(\N)C(=O)O | 5.41
5 | Cc1[nH]cnc1CSCC/N=C(\N)c1ccc(C(=O)O)cc1 | 3.7
6 | CN/C(=N\CCSCc1nc[nH]c1C)NC#N | 6.1
7 | CN/C(=N\CCSCc1[nH]cnc1C)S(=O)(=O)O | 5.87
8 | Cc1[nH]cnc1CSCC/N=C(\N)CC(=O)O | 3.3
9 | CN/C(=N\CCSCc1[nH]cnc1C)S(=O)O | 5.73
10 | CN/C(=N\CCSCc1[nH]cnc1C)P(=O)(O)OC | 4.25
11 | Cc1[nH]cnc1CSCCNc1cc(C(=O)O)ccn1 | 3.76
12 | Cc1[nH]cnc1CSCCNc1ncccc1O | 5.89
13 | Cc1[nH]cnc1CSCCNc1ncccc1C(=O)O | 5.09
